Results reported in US8637472B2, “Optimized dengue virus entry inhibitory peptide (10AN)” (University of Washington Through Its Center for …, priority 2007, dated 2014).
Residues, ends and D or L forms follow the SMILES beside them.

Test system: LLCMK-2 cells
Experiment: Cytotoxicity assay (TACS MTT, mitochondrial reductase activity)
Assay type: cell-based, African green monkey
Settings: confluent LLCMK-2 monolayers; concentration ranges that showed viral inhibition; compared to medium only controls
Experimental: The cytotoxicity of the chemistries was measured by monitoring mitochondrial reductase activity using the TACS™ MTT cell proliferation assay (R&D Systems, Inc., Minneapolis, Minn.) according to the manufacturer's instructions. Dilutions of chemistries in serum-free DMEM were added to confluent monolayers of LLCMK-2 cells in 96-well plates for 1 h at 37° C., similar to the focus forming inhibition assays, and subsequently incubated at 37° C. with 5% (v/v) CO2 for 24 h. Absorbance at 560 nm was measured using a Tecan GeniosPro plate reader (Tecan US, Durham, N.C.).

Structure (SMILES): CC[C@H](C)[C@H](NC(=O)[C@H](CC(C)C)NC(=O)[C@@H](NC(=O)[C@H](Cc1ccccc1)NC(=O)[C@H](Cc1c[nH]c2ccccc12)NC(=O)[C@@H](N)Cc1ccccc1)[C@@H](C)O)C(=O)N[C@@H](CCCCN)C(=O)N[C@H](C(=O)N[C@@H](CCC(N)=O)C(=O)N[C@@H](C)C(=O)N[C@@H](CCCCN)C(=O)N[C@@H](CCC(N)=O)C(=O)N1CCC[C@H]1C(=O)N[C@@H](C)C(=O)N[C@@H](CCCNC(=N)N)C(=O)N[C@@H](Cc1ccc(O)cc1)C(=O)N[C@@H](CCCNC(=N)N)C(=O)N[C@@H](CCCNC(=N)N)C(=O)N[C@@H](Cc1ccccc1)C(=O)N[C@@H](CS)C(=O)O)[C@@H](C)O [10AN] (H-FWFTLIKTQAKQPARYRRFC-OH)
- cytotoxicity (mitochondrial reductase activity of target cells): not due to toxicity
